Here are results for 47 molecules from ChEMBL document CHEMBL2203115, “Design and synthesis of procollagen C-proteinase inhibitors” (Bioorg Med Chem Lett, 2012).

pIC50: −log10 of the molar value. Peptide text beside a SMILES is read from it. * marks the point of attachment. NHOH = ON* Where only a bound is given, the exact number is not on record here.

Matrix metalloproteinase-9, sequence (P14780 whole entry): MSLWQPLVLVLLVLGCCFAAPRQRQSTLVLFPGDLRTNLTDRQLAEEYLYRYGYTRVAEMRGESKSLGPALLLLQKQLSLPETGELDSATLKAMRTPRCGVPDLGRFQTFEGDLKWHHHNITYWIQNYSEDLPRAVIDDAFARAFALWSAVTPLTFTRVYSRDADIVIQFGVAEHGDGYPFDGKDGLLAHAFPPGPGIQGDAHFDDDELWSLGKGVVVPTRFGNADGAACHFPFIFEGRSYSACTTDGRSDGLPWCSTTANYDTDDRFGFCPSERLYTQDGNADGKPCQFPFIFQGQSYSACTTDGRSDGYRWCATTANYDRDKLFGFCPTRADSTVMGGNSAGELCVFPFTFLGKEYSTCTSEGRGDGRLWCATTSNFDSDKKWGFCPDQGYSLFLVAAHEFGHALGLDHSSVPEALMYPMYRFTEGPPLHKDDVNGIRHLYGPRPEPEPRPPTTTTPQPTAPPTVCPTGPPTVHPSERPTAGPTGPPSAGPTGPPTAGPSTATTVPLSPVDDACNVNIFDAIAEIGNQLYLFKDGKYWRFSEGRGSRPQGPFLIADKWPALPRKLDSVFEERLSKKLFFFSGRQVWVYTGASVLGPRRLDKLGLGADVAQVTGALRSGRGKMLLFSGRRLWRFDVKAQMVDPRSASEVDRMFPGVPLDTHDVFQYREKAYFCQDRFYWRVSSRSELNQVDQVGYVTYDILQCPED

One test concerns 3T3-L1. The experiment in a line: Cytotoxicity against mouse 3T3L1 cells. The test is classed as cell-based.
The molecule `COc1ccc(CCN(CCC(=O)NO)S(=O)(=O)c2ccc(/C(N)=N/O)cc2)cc1` gave a pIC50 of 3.82.

Another test addresses T1, Interstitial collagenase (Homo sapiens, UniProt P03956).
T1 sequence (P03956 whole entry): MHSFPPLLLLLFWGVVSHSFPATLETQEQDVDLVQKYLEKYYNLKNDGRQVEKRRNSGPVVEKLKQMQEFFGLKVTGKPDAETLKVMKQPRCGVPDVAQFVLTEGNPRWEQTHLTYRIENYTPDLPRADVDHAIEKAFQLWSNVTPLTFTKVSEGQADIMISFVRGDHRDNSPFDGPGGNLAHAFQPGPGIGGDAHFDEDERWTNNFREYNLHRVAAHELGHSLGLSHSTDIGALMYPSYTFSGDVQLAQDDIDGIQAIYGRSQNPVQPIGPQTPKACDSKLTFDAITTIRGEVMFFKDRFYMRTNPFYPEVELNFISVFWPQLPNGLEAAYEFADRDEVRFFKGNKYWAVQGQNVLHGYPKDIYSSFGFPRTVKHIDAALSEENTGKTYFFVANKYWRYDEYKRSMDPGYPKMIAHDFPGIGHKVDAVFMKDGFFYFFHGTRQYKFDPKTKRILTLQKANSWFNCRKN
The experiment in a line: Inhibition of para-amino phenylmercuric acetate-activated MMP1 using Mca-P-L-G-L-Dap(Dnp)-A-R-NH2 as substrate after 1 hr by fluorescence assay.
For `COc1ccc(CCN(CCC(=O)NO)S(=O)(=O)c2ccc(/C(N)=N/O)cc2)cc1`, the pIC50 was less than 4.60.
As for `COc1ccc(CCN(CCC(=O)NO)S(=O)(=O)c2ccc(NC(=O)NCc3ccccc3)cc2)cc1`, the pIC50 is less than 4.60.

A further test addresses Matrix metalloproteinase-9 (Homo sapiens, UniProt P14780). Put plainly: Inhibition of para-amino phenylmercuric acetate-activated MMP9 using Mca-P-L-G-L-Dap(Dnp)-A-R-NH2 as substrate after 1 hr by fluorescence assay.
In turn, `COc1ccc(S(=O)(=O)N(CC(=O)NO)Cc2ccc(Cl)cc2)cc1` gave a pIC50 of 7.30.
Still for that read-out and setting: to `COc1ccc(CCN(CCC(=O)NO)S(=O)(=O)c2ccc(S(C)(=O)=O)cc2)cc1` belongs less than 5.22; to `COc1ccc(CCN(CCC(=O)NO)S(=O)(=O)c2ccc(/C(N)=N/O)cc2)cc1`, less than 4.60; to `COc1ccc(CCN(CCC(=O)NO)S(=O)(=O)c2ccc(NC(=O)NCc3ccccc3)cc2)cc1`, less than 4.60.

The target in a further test is 72 kDa type IV collagenase (Homo sapiens, UniProt P08253). The experiment in a line: Inhibition of para-amino phenylmercuric acetate-activated MMP2 using Mca-P-L-G-L-Dap(Dnp)-A-R-NH2 as substrate after 1 hr by fluorescence assay.
72 kDa type IV collagenase, sequence (P08253 whole entry): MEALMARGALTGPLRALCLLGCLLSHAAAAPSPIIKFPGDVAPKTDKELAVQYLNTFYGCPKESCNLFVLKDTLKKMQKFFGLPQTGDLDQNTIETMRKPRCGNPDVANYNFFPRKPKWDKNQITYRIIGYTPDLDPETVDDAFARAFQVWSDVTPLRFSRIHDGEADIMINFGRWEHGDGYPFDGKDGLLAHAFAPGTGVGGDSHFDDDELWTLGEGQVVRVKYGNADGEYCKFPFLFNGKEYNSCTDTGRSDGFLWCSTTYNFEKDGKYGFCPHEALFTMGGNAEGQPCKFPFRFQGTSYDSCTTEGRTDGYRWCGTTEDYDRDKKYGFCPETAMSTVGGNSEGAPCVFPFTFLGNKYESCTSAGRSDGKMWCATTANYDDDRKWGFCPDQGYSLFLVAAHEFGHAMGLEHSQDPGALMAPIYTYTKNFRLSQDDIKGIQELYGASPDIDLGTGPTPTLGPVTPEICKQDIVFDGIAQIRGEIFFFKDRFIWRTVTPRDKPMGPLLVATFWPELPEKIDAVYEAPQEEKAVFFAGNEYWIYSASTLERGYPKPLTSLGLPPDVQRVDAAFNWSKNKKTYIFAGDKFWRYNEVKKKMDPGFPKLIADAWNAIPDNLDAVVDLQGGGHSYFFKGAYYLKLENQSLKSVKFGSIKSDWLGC
`COc1ccc(S(=O)(=O)N(CC(=O)NO)Cc2ccc(Cl)cc2)cc1` had a pIC50 of 6.85.
On the same count and under the same terms, to `COc1ccc(CCN(CCC(=O)NO)S(=O)(=O)c2ccc(S(C)(=O)=O)cc2)cc1` belongs less than 5.22; to `COc1ccc(CCN(CCC(=O)NO)S(=O)(=O)c2ccc(/C(N)=N/O)cc2)cc1`, less than 4.60.
Turning to `COc1ccc(CCN(CCC(=O)NO)S(=O)(=O)c2ccc(NC(=O)NCc3ccccc3)cc2)cc1`, the pIC50 was less than 4.60.

Another test addresses T2, Bone morphogenetic protein 1 (Homo sapiens, UniProt P13497).
T2 sequence (P13497 whole entry): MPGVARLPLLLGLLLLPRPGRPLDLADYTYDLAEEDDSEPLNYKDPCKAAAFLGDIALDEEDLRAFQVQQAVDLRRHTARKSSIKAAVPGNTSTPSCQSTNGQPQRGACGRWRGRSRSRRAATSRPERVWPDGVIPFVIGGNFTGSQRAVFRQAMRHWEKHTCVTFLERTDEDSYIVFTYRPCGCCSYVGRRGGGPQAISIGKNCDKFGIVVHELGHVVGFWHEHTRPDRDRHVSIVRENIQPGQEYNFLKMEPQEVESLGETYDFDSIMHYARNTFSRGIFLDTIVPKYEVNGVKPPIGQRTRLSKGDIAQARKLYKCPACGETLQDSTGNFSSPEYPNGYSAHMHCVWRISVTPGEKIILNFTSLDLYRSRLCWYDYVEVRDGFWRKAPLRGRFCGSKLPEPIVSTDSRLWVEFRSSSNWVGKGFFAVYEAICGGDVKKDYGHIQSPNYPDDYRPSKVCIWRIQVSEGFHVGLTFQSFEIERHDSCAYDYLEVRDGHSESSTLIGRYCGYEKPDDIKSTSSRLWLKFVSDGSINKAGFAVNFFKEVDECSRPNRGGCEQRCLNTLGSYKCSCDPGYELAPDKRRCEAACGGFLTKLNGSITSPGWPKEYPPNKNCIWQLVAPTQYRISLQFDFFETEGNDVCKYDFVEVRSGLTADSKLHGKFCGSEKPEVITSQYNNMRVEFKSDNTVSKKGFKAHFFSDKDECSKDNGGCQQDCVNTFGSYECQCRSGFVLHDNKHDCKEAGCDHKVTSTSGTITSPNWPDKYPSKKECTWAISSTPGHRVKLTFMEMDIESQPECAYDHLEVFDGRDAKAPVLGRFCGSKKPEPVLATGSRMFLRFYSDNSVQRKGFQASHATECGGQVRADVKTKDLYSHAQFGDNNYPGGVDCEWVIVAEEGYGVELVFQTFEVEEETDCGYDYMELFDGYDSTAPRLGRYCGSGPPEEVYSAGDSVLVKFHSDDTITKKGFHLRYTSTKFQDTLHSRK
The experiment in a line: Inhibition of PCP after 1 hr by fluorescence assay.
`COc1ccc(CCN(CC(=O)NO)S(=O)(=O)c2ccc(OC)cc2)cc1` had a pIC50 of 4.74.
The same measure, in the same setting: to `CCC(C)N(CCC(=O)NO)S(=O)(=O)c1ccc(OC)cc1` (stereo not given) belongs 5.77.
Still for that read-out and setting: to `COc1ccc(CCN(CC(=O)CS)S(=O)(=O)c2ccc(S(C)(=O)=O)cc2)cc1` belongs 5.33; to `COc1ccc(S(=O)(=O)N(CCC(=O)NO)CCc2ccc(S(N)(=O)=O)cc2)cc1`, 4.64.
`CC(C)(C)c1ccc(S(=O)(=O)N(CCC(=O)NO)CCc2ccccc2)cc1`: the pIC50 is 4.77.
Still for that read-out and setting: the figure for `COc1ccc(CCN(CCC(=O)NO)S(=O)(=O)c2ccccc2S(C)(=O)=O)cc1` is 5.04; for `COc1ccc(S(=O)(=O)N(CCC(=O)NO)c2ccccc2)cc1` it is 5.52.
Consider `COc1ccc(S(=O)(=O)N(CC(=O)NO)Cc2ccc(Cl)cc2)cc1`, for which the pIC50 is 4.72.
On the same count and under the same terms, the figure for `CNC(=O)[C@H](CCC(=O)O)NC(=O)C(CC(=O)O)CC(=O)NO` (mixture of isomers) is 4.40; for `COc1ccc(CCN(CCN(O)C(N)=O)S(=O)(=O)c2ccc(S(C)(=O)=O)cc2)cc1` it is less than 4.00.
Same read-out and setting: to `COc1ccc(S(=O)(=O)N(CCc2ccccc2)CC(=O)NO)cc1` belongs 4.74.
`COc1ccc(S(=O)(=O)N(CC(=O)NO)C(c2ccccc2)c2ccccc2)cc1` gave a pIC50 of 3.99.
`COc1ccc(S(=O)(=O)N(CCCC(=O)NO)Cc2ccccc2)cc1` gave a pIC50 of 5.00.
On the same count and under the same terms, the figure for `COc1ccc(S(=O)(=O)N(CCC(=O)NO)CCc2ccccn2)cc1` is 5.09; for `CCCCS(=O)(=O)N(CCC(=O)NO)CCc1ccc(OC)cc1` it is 5.17.
Same read-out and setting: the figure for `CNC(=O)[C@H](CCC(=O)O)NC(=O)[C@H](CC(=O)O)NCC(=O)O` is 2.82.
On the same count and under the same terms, to `COc1ccc(S(=O)(=O)N(CCC(=O)NO)CCc2ccc([N+](=O)[O-])cc2)cc1` belongs 4.96.
`COc1ccc(S(=O)(=O)N(CCC(=O)NO)CC2CCCCC2)cc1` showed a pIC50 of 6.00.
For the molecule `CCC(C)N(CC(=O)NO)S(=O)(=O)c1ccc(OC)cc1` (stereo not given), the pIC50 was 3.95.
On the same count and under the same terms, to `COc1ccc(S(=O)(=O)N(CC(=O)NO)Cc2ccc(C(F)(F)F)cc2)cc1` belongs 4.17.
In the case of `COc1ccc(CCN(CCCS)S(=O)(=O)c2ccc(S(C)(=O)=O)cc2)cc1`, the pIC50 is 4.85.
Turning to `CNC(=O)[C@H](CCC(=O)O)NC(=O)C(CS)CC(=O)O` (stereo not given in full), the pIC50 is 4.07.
The same measure, in the same setting: the figure for `COc1ccc(S(=O)(=O)N(CCC(=O)NO)CCc2cccc(OC)c2)cc1` is 5.64; for `COc1ccc(S(=O)(=O)N[C@@H](CC(=O)O)C(=O)NO)cc1` it is 5.00; for `COc1ccc(S(=O)(=O)N(CCCC(=O)NO)c2ccccc2)cc1` it is 4.55.
On the same count and under the same terms, to `COc1ccc(S(=O)(=O)N(CCC(=O)NO)CCc2ccc(OC)c(OC)c2)cc1` belongs 4.38.
Same read-out and setting: the figure for `COc1ccc(S(=O)(=O)NCCC(=O)NO)cc1` is 3.78.
In turn, `COc1ccc(CN(CC(=O)NO)S(=O)(=O)c2ccc(OC)cc2)cc1` had a pIC50 of 4.54.
The same measure, in the same setting: to `COc1ccc(N(CCC(=O)NO)S(=O)(=O)c2ccc(OC)cc2)cc1` belongs 5.77; to `COc1ccc(CCN(CCS)S(=O)(=O)c2ccc(S(C)(=O)=O)cc2)cc1`, 5.03; to `CCCCOC(=O)CN(CC(=O)NO)S(=O)(=O)c1ccc(OC)cc1`, 3.78.
The same measure, in the same setting: to `COc1ccc(S(=O)(=O)N(CC(=O)NO)c2ccccc2)cc1` belongs 4.16.
On the same count and under the same terms, to `COc1ccc(CCN(CCC(=O)NO)S(=O)(=O)c2ccccc2/C(N)=N\O)cc1` belongs 5.15; to `CC(=O)N1CCC[C@H]1C(=O)N[C@@H](Cc1ccc(O)cc1)C(=O)N[C@@H](Cc1ccc(O)cc1)C(=O)NCC(=O)NO` (Ac-PYYG-{NHOH}), 4.38.
`COc1ccc(S(=O)(=O)N(CC(=O)NO)Cc2ccc(F)cc2)cc1` had a pIC50 of 4.47.
On the same count and under the same terms, to `CCCCS(=O)(=O)N(CCc1ccc(OC)cc1)CC(=O)NO` belongs 4.26; to `COc1ccc(S(=O)(=O)N(CC(=O)NO)Cc2ccccc2)cc1`, 4.80; to `COc1ccc(CCN(CCC(=O)CS)S(=O)(=O)c2ccc(S(C)(=O)=O)cc2)cc1`, 4.89.
Same read-out and setting: to `COc1ccc(S(=O)(=O)N(CC(=O)O)CC(=O)NO)cc1` belongs 3.46; to `O=C(CCN(CCc1ccccc1)S(=O)(=O)c1ccccc1)NO`, 5.66.
The same measure, in the same setting: the figure for `COc1ccc(S(=O)(=O)N(Cc2ccccc2)[C@@H](CC(=O)O)C(=O)NO)cc1` is 5.55; for `O=C(CCN(CCc1ccccc1)S(=O)(=O)c1ccc(C(=O)O)cc1)NO` it is 6.00.
Regarding `COc1ccc(S(=O)(=O)N(CCC(=O)NO)Cc2ccccc2)cc1`, the pIC50 was 5.35.
Still for that read-out and setting: to `COc1ccc(N(CC(=O)NO)S(=O)(=O)c2ccc(OC)cc2)cc1` belongs 4.14.

In general, pIC50 refers to the IC50 on a negative log10 scale, so that one unit is a factor of ten. Low values mean a large IC50, high ones a small IC50.
